{"source": "paper PMC12562324", "about": "“Surfactin Structural Variants Differentially Modulate Plant Immune Responses” (Biomolecules, 2025)", "key": {"[1]": {"tested_on": "Arabidopsis thaliana nia1nia2 double mutant roots", "test": "Srf-induced NO in nitrate reductase double mutant roots", "assay_type": "cell-based", "conditions": "fluorescence 40 min after Srf treatment, compared with Col-0; n = 12 from three independent experiments; Figure 3D", "method": "For the detection of intracellular NO, roots were processed as described above and 200 µL sterile water was replaced by 200 µL 5 μM DAF-DA in a buffered solution (10 mM Tris/HCl, pH = 7.4). Roots were incubated at room temperature for 1 h in the absence of light and then washed 3 times with Tris/HCl (10 mM, pH = 7.4). The fluorescence emitted by DAF-DA was detected by excitation at 495 nm and emission at 515 nm. Experiments where NO was measured after pretreatment with the calcium channel blocker or calcium chelator included an additional step where LaCl3 (10 mM; Merck Chemicals SA, Hoeilaart, Belgium) or EGTA (1 mM; Merck Chemicals SA, Hoeilaart, Belgium) was added three minutes before treatments. Data were processed as described above for ROS. For NO measurements in protoplasts, the suspension was incubated in the same conditions before being distributed (50 µL) in microplate wells and treated with the CLPs at a 10 µM final concentration or with 0.1% DMSO as a mock."}, "Botrytis cinerea": {"tested_on": "Botrytis cinerea", "test": "ISR against B. cinerea in myb72-2 knockout mutant", "assay_type": "in vivo", "conditions": "10 µM Srf or mock (0.1% EtOH) before B. cinerea infection; n = 30 from two independent experiments; Figure 6C", "method": "Plants were grown for 4 weeks in hydroponic conditions in Araponics systems containing a nutrient solution (0.25% (v/v) FLORAMICRO®, 0.25% (v/v) FLORABLOOM®, 0.25% (v/v) FLORAGRO®; General Hydroponics®, in volume ratio 1:1:1, as recommended by the manufacturer), with a photoperiod of 12 h and a temperature of 22 °C. Plants were then transferred into 10 mL vials filled with fresh nutrient solution and treated at the root level with CLPs or ethanol (mock treatment) to obtain final concentrations of 10 µM and 0.1%, respectively. After incubation for 24 h, plants were inoculated with Botrytis cinerea (Helotiales: Sclerotiniaceae) as the conidia solution. Spores were collected from B. cinerea grown on PDA plates for 4 weeks using a solution composed of 1.75 g/L KH2PO4; 0.74 g/L MgSO4; 4 g/L glucose, and 0.02% (v/v) Tween 20. After spore collection, the concentration was adjusted to 5 × 10^5 spores per mL, and spores were incubated at 30 °C for eight hours. Inoculation was conducted by inoculating a drop of 3 µL of conidia solution onto seven leaves per plant and fifteen plants per treatment. The number of spreading lesions was evaluated 96 h post infection."}, "MYB72": {"tested_on": "MYB72", "test": "Coumarin pathway reporter line pMYB72:GFP-GUS", "assay_type": "cell-based, Arabidopsis thaliana", "conditions": "10 µM Srf, 20 min post treatment, vs mock; n = 9 from three independent experiments; p < 0.05; Figure 6A", "method": "(§1) Seedlings of the Arabidopsis thaliana reporter lines pMYB72:GFP-GUS and pBGLU42:GFP-GUS were germinated and cultivated for seven days under the aforementioned conditions. Uniform plantlets were then transferred to 96-well optical bottom black microplates (Greiner 96 µClear, Thermo Fisher Scientific, Hampton, VA, USA). Each well contained 150 µL of the hydroponic solution. Following transfer, the microplates were sealed and incubated in a growth chamber under controlled conditions (22 °C with a 12 h photoperiod). On the fifth day of this incubation, the plates were treated by adding 150 µL of either the CLP solution or a mock control to each well. Fluorescence measurements were subsequently acquired using a Spark microplate reader and configured with an excitation wavelength of 485 nm and an emission wavelength of 530 nm. Data were collected with nine measurement points acquired per well to ensure robustness."}, "BGLU42": {"tested_on": "BGLU42", "test": "Coumarin pathway reporter line pBGLU42:GFP-GUS", "assay_type": "cell-based, Arabidopsis thaliana", "conditions": "10 µM Srf, 20 min post treatment, vs mock; n = 12 from three independent experiments; p < 0.05; Figure 6B", "method": "as §1"}, "root tissues": {"tested_on": "root tissues", "conditions": "previous results; cited from earlier work", "source_text": "Early immune responses associated with PTI include the rapid accumulation of extracellular ROS in the apoplast, generated mainly by the plasma membrane-located NADPH oxidase RBOHD or by cell wall peroxidases. Cytoplasmic hydrogen peroxide ([ROS]intra) production also emerges as an early defense response and could originate from various organelles, as reported for ETI, or in response to abiotic stresses or other small microbial compounds [9, 36, 37]."}}}
{"substance": "surfactin [Srf]", "values": [{"measurement": "NO production in nia1nia2 double mutant roots", "setting": "[1]", "result": "fully conserved induction of NO production"}, {"measurement": "ISR elicitor potential in myb72-2 knockout mutant compared to wild-type Col-0", "setting": "Botrytis cinerea", "result": "fully conserved"}, {"measurement": "MYB72 expression in roots of reporter line (GFP fluorescence)", "setting": "MYB72", "result": "significant upregulation"}, {"measurement": "BGLU42 expression in roots of reporter line (GFP fluorescence)", "setting": "BGLU42", "result": "significant upregulation"}, {"measurement": "Burst in extracellular ROS in root tissues", "setting": "root tissues", "result": "not a burst in extracellular ROS"}, {"measurement": "[ROS]intra production in root tissues", "setting": "root tissues", "result": "triggers [ROS]intra production"}]}
